Source: US9439425B2, “Plant disease control composition and plant disease control method” (Sumitomo Chemical Company, Limited, priority 2012, dated 2016)

tested on: powdery mildew; assay: Test Example 1: foliar spray on potted wheat, powdery mildew inoculation, control value from onset area rate; assay type: in vivo, Wheat (Shirogane); details: treatment concentration 0.1 ppm, single agent; foliage spray on wheat, powdery mildew inoculated, 7 days at 21° C.
Description: A plastic pot was stuffed with a sand soil. Wheat (Shirogane) was sown thereon, allowed to grow in a greenhouse at 24° C. for 7 days, transferred to a greenhouse at 15° C., and then allowed to grow for 14 days. A water-diluted solution of the present compound (I) and a water-diluted solution of pyriofenone, metrafenone, cyflufenamid, quinoxyfen or proquinazid were mixed to prepare an agent solution containing prescribed amounts of the present compound (I) and, pyriofenone, metrafenone, cyflufenamid, quinoxyfen or proquinazid. The agent solution was sprayed to the foliage of the wheat, then the plant was air-dried, and then a powdery mildew was inoculated. After the inoculation, the plant was allowed to stand at 21° C. for 7 days and then an onset area rate was examined visually and a control value was calculated using the following formula. Moreover, the present compound (I), pyriofenone, metrafenone, cyflufenamid, quinoxyfen or proquinazid was diluted with water to prepare water-diluted solutions with a prescribed concentration, the same test was carried out for each of the solutions and control values were calculated. Control value (%)=100×(A−B)/A A: an onset area rate of the non-treated group B: an onset area rate of the treated group Results are shown in Table 1.

| SMILES | Control value [%] |
| --- | --- |
| C=CCSC(=O)n1c(N)c(-c2ccccc2C)c(=O)n1C(C)C [Present compound (I)] | 3 |

same assay, conditions: treatment concentration 0.15 ppm, single agent; foliage spray on wheat, powdery mildew inoculated, 7 days at 21° C.

| SMILES | Control value [%] |
| --- | --- |
| O=C(Cc1ccccc1)N/C(=N\OCC1CC1)c1c(C(F)(F)F)ccc(F)c1F [Cyflufenamid] | 52 |
| Fc1ccc(Oc2ccnc3cc(Cl)cc(Cl)c23)cc1 [Quinoxyfen] | 71 |
| CCCOc1nc2ccc(I)cc2c(=O)n1CCC [Proquinazid] | 74 |
| COc1cc(C)c(C(=O)c2c(OC)ncc(Cl)c2C)c(OC)c1OC [Pyriofenone] | 69 |
| COc1cc(C)c(C(=O)c2c(OC)ccc(Br)c2C)c(OC)c1OC [Metrafenone] | 71 |
